This is an account of results in ChEMBL document CHEMBL1201862, “PubChem BioAssay data set” (2004).

SMILES strings stand for the structures.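 Dose response: 5 concentrations. Exposure: 48 h. Format: 96-well plates. Endpoint: linear interpolation; highest concentration if not reached. Abbreviation: GI50, concentration required for 50% inhibition of growth.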 Active and inactive are the calls of the source. Rule as the data show it: active = GI50 up to about 1.1 µM and inactive = higher.

What all share (test): growth of human tumour cells (NCI), 48 h
Assay [1] relates to HT-29.
In assay [2] the test system is IGROV-1.
Assay [3] deals with ACHN.
In assay [4] the test system is SF-539.
Assay [5] concerns NCI-H226.
Assay [6] has as its system KM12.
Assay [7] has as its system RPMI-8226.
Assay [8] concerns HCT-116.
Assay [9] concerns MOLT-4.
Assay [10] has as its system BT-549.
For assay [11], the system named is OVCAR-8.
Assay [12] relates to T47D.
Assay [13] concerns A549.
Assay [14] deals with HOP-92.
For assay [15], the system named is SW-620.
In assay [16] the test system is MDA-N.
The subject of assay [17] is SNB-75.
In assay [18] the test system is COLO 205.
Assay [19] relates to Malme-3M.

In the case of `O=C1N=C(Nc2ccccc2Cl)N/C1=C\c1ccc(Cl)cc1Cl`, the GI50 in assay [1] is > 100 µM (inactive); in [2] it was 79.4 µM (inactive); in [3], 62.1 µM (inactive); in [4], 37.8 µM (inactive); in assay [5], 25.1 µM (inactive); in [6], 45.6 µM (inactive). Moreover, the GI50 in assay [7] was > 100 µM (inactive); in [8] it was 38.4 µM (inactive); in assay [9] it was 66.8 µM (inactive); in assay [10] it was > 100 µM (inactive); in assay [11] it was 38.3 µM (inactive); in assay [12], > 100 µM (inactive). The GI50 in [13] is 98.9 µM (inactive); in assay [14], 39.9 µM (inactive); in [15] it was 46.3 µM (inactive); in [16], 8.11 µM (inactive); in [17] it was 29.9 µM (inactive); in assay [18] it was 47.8 µM (inactive). Also, the GI50 in assay [19] is 53.6 µM (inactive).
Turning to `COC(=O)c1cc2c(cc1CC(Cc1ccc3c(c1)CCCC3)C(=O)OC)CCCC2` (centres undefined), the GI50 in assay [1] was 33.7 µM (inactive); in assay [2], > 100 µM (inactive); in assay [3] it was 49.9 µM (inactive); in assay [4], 32.7 µM (inactive); in assay [5], 59.3 µM (inactive); in assay [6] it was 50.5 µM (inactive). In addition, the GI50 in [7] was 20 µM (inactive); in assay [8], 36 µM (inactive); in [9] it was 42.1 µM (inactive); in [10], > 100 µM (inactive); in assay [11], 84.7 µM (inactive); in assay [12], 39.8 µM (inactive). The GI50 in [13] is 37.7 µM (inactive); in assay [14], 44.9 µM (inactive); in assay [15], 80.9 µM (inactive); in [16], 65.3 µM (inactive); in [17] it was 64.4 µM (inactive); in assay [18], 33.2 µM (inactive). For the same compound, in assay [19], the GI50 was 33.6 µM (inactive).
For the compound `NCCc1ccc2c(c1)C(=O)c1c(O)ccc(O)c1C2=O`, the GI50 in [2] was 3.4 µM (inactive); in [3] it was 4.46 µM (inactive); in assay [4], 3.02 µM (inactive); in [5] it was 17 µM (inactive); in assay [6], 4.72 µM (inactive); in assay [7] it was 4.14 µM (inactive). For the same compound, the GI50 in [8] was 2.69 µM (inactive); in [9], 2.76 µM (inactive); in [10], 6.73 µM (inactive); in assay [11], 2.04 µM (inactive); in assay [12], 3.37 µM (inactive); in [13], 3.56 µM (inactive). Also, the GI50 was 4.05 µM (inactive) in [14]; 3.95 µM (inactive) in [15]; 2.82 µM (inactive) in assay [16]; 4.57 µM (inactive) in assay [17]; 1.68 µM (inactive) in [18]; 1.87 µM (inactive) in assay [19].
On to `CC1CC[C@@]2(OC1)OC1C[C@H]3[C@@H]4CC[C@H]5CC(OC6OC(CO)C(OC7OC(CO)C(O)C(O)C7OC7OC(CO)C(O)C(O)C7O)C(O)C6O)CCC5(C)[C@H]4CCC3(C)C1[C@@H]2C` (some centres undefined), for which the GI50 was 0.964 µM (active) in assay [1]; 1.04 µM (active) in assay [2]; 1.54 µM (inactive) in assay [3]; 1.22 µM (inactive) in assay [4]; 1.34 µM (inactive) in assay [5]; 3.33 µM (inactive) in assay [6]. For the same compound, the GI50 in assay [7] was 1.88 µM (inactive); in [8] it was 1.94 µM (inactive); in [9], 1.29 µM (inactive); in assay [10], 1.38 µM (inactive); in assay [11] it was 6.24 µM (inactive); in assay [12], 2.16 µM (inactive). Moreover, the GI50 in assay [13] was 2.1 µM (inactive); in assay [14], 5.2 µM (inactive); in assay [15], 0.933 µM (active); in [16], 2.86 µM (inactive); in [17], 2.59 µM (inactive); in [18] it was 0.955 µM (active). The GI50 in [19] is 4.04 µM (inactive).
As to `COc1nc2ncc([C@@H](O)[C@H](O)CO)nc2c(=O)[nH]1`, the GI50 in [1], in [2], in [3], in assay [4], in [5] and in assay [6] was > 100 µM (inactive) each time. For the same compound, the GI50 in [7] is > 100 µM (inactive); in assay [8] it was > 100 µM (inactive); in assay [9], > 100 µM (inactive); in [10] it was 99.1 µM (inactive); in [11], > 100 µM (inactive); in assay [12], > 100 µM (inactive). The GI50 in [13], in assay [14], in [15], in assay [16], in [17] and in assay [18] was > 100 µM (inactive) throughout. Moreover, the GI50 in assay [19] was > 100 µM (inactive).
As to `COc1ccn(CC(=O)c2cc3ccccc3[nH]2)c(=O)n1`, the GI50 in assay [1], in assay [2], in [3], in assay [4], in assay [5] and in assay [6] was > 100 µM (inactive) each time. In addition, the GI50 in assay [7], in assay [8], in assay [9], in assay [10], in assay [11] and in assay [12] was > 100 µM (inactive) each time. The GI50 in [13] was > 100 µM (inactive); in assay [14], 49.7 µM (inactive); in assay [15] it was > 100 µM (inactive); in assay [16], > 100 µM (inactive); in assay [17] it was > 100 µM (inactive); in assay [18] it was > 100 µM (inactive). The GI50 in assay [19] is > 100 µM (inactive).
Take `Cc1c2ccccc2cc2nc3ccccc3n12`: the GI50 in assay [1], in assay [2], in assay [3], in assay [4], in assay [5] and in [6] was > 10 µM (inactive) throughout. In addition, the GI50 in assay [7], in assay [8], in [9], in assay [10], in [11] and in assay [12] was > 10 µM (inactive) each time. Moreover, the GI50 in assay [13], in assay [14], in assay [15], in [16], in [17] and in assay [18] was > 10 µM (inactive) each time. Moreover, in assay [19], the GI50 is > 10 µM (inactive).
On to `C=C(C)C1Cc2c(cc3c(c2O)c(=O)c2ccccc2n3C)O1` (centres undefined), for which the GI50 is 2.61 µM (inactive) in [1]; 1.87 µM (inactive) in assay [2]; 5.14 µM (inactive) in assay [3]; 2.4 µM (inactive) in assay [4]; 2.41 µM (inactive) in [5]; 1.95 µM (inactive) in [6]. Further, the GI50 was 2.06 µM (inactive) in assay [7]; 2.03 µM (inactive) in [8]; 0.372 µM (active) in assay [9]; 1.72 µM (inactive) in assay [10]; 1.84 µM (inactive) in [11]; 6.67 µM (inactive) in assay [12]. Further, the GI50 in assay [13] was 6.62 µM (inactive); in assay [14] it was 7.67 µM (inactive); in assay [15] it was 1.81 µM (inactive); in assay [16] it was 3.2 µM (inactive); in [17], 4.5 µM (inactive); in [18], 5.75 µM (inactive). The GI50 in assay [19] was 1.63 µM (inactive).
On to `O=C1Nc2c(Cl)cc(Cl)cc2/C1=N/Nc1ccccc1[N+](=O)[O-]`, for which the GI50 in assay [1] is > 100 µM (inactive); in [2], 23.8 µM (inactive); in assay [3], 11.6 µM (inactive); in [4], 13 µM (inactive); in [5], 49 µM (inactive); in assay [6], 88.9 µM (inactive). For the same compound, the GI50 in [7] was > 100 µM (inactive); in assay [8], 38.2 µM (inactive); in assay [9] it was 46.1 µM (inactive); in [10], 9.68 µM (inactive); in [11] it was 30.3 µM (inactive); in [12], 70.5 µM (inactive). In addition, the GI50 in assay [13] is 69.2 µM (inactive); in assay [14], 12 µM (inactive); in assay [15], > 100 µM (inactive); in assay [16], > 100 µM (inactive); in assay [17], 4.28 µM (inactive); in assay [18] it was 92.5 µM (inactive). Besides, in assay [19], the GI50 was 29.2 µM (inactive).
Consider `CC1(c2nc3ccccc3[nH]2)CCC(C(N)=O)C(C)(C)O1` (centres undefined), for which the GI50 in assay [1], in assay [2], in assay [3], in [4], in assay [5] and in assay [6] was > 100 µM (inactive) in each case. Further, the GI50 in assay [7], in assay [8], in assay [9], in assay [10], in [11] and in assay [12] was > 100 µM (inactive) each time. For the same compound, the GI50 in [13], in assay [14], in [15], in assay [16], in assay [17] and in assay [18] was > 100 µM (inactive) in each case. Moreover, in [19], the GI50 is > 100 µM (inactive).
